{"source": "paper PMC4890880", "about": "(ACS infectious diseases, 2016)", "key": {"[1]": {"system": "Plasmodium berghei (Pb-Luc) exoerythrocytic-stage parasites", "details": "for normalized signal at concentration 10 / normalized signal at concentration 0.000508053 / normalized signal at concentration 0.00152416 / normalized signal at concentration 0.00457247 / normalized signal at concentration 0.0137174 / normalized signal at concentration 0.0411523 / normalized signal at concentration 0.123457 / normalized signal at concentration 0.37037 / normalized signal at concentration 1.11111 / normalized signal at concentration 3.33333: fraction of control; for IC50: read-out: PbLuc_IC50; for IC50 / PbLuc_max_inhibition (%): sheet 2nd round; for PbLuc_max_inhibition (%): maximal inhibition in dose response"}, "HepG2-A16-CD81EGFP cells": {"system": "HepG2-A16-CD81EGFP cells", "details": "sheet 2nd round; for IC50: read-out: Tox_IC50, HepG2 cytotoxicity; for Tox_max_inhibition (%): maximal inhibition in dose response"}, "[2]": {"details": "first series of dose-response columns"}, "[3]": {"details": "second series of dose-response columns"}, "[4]": {"details": "second series of columns (replicate)"}}, "note": "Where two headings read alike, the source gives them in different places.", "data": [{"molecule": "O=S(=O)(c1cccs1)N1CCCCN2[C@H](CO)[C@H](c3ccc(/C=C/c4ccccc4)cc3)[C@H]2C1", "note": "[BRD-K20449903-001-01-6]", "values": [{"measurement": "normalized signal at concentration 10", "setting": "[1]; [2]", "value": 0.52}, {"measurement": "normalized signal at concentration 0.000508053", "setting": "[1]; first series", "value": 1.07}, {"measurement": "normalized signal at concentration 0.00152416", "setting": "[1]; first series", "value": 1.07}, {"measurement": "normalized signal at concentration 0.00457247", "setting": "[1]; first series", "value": 0.84}, {"measurement": "normalized signal at concentration 0.0137174", "setting": "[1]; first series", "value": 1.09}, {"measurement": "normalized signal at concentration 0.0411523", "setting": "[1]; first series", "value": 0.93}, {"measurement": "normalized signal at concentration 0.123457", "setting": "[1]; first series", "value": 1.01}, {"measurement": "normalized signal at concentration 0.37037", "setting": "[1]; first series", "value": 1.01}, {"measurement": "normalized signal at concentration 1.11111", "setting": "[1]; first series", "value": 1.05}, {"measurement": "normalized signal at concentration 3.33333", "setting": "[1]; first series", "value": 1.18}, {"measurement": "IC50", "setting": "[1]; Broad compounds, dose response", "value": "> 10", "unit": "µM"}, {"measurement": "normalized signal at concentration 10", "setting": "[1]; [3]", "value": 0.70}, {"measurement": "normalized signal at concentration 0.000508053", "setting": "[1]; second series", "value": 0.94}, {"measurement": "normalized signal at concentration 0.00152416", "setting": "[1]; second series", "value": 1.05}, {"measurement": "normalized signal at concentration 0.00457247", "setting": "[1]; second series", "value": 0.96}, {"measurement": "normalized signal at concentration 0.0137174", "setting": "[1]; second series", "value": 1.06}, {"measurement": "normalized signal at concentration 0.0411523", "setting": "[1]; second series", "value": 1.19}, {"measurement": "normalized signal at concentration 0.123457", "setting": "[1]; second series", "value": 1.23}, {"measurement": "normalized signal at concentration 0.37037", "setting": "[1]; second series", "value": 0.91}, {"measurement": "normalized signal at concentration 1.11111", "setting": "[1]; second series", "value": 1.04}, {"measurement": "normalized signal at concentration 3.33333", "setting": "[1]; second series", "value": 1.04}, {"measurement": "PbLuc_max_inhibition (%)", "setting": "[1]", "value": 48, "unit": "%"}, {"measurement": "IC50", "setting": "HepG2-A16-CD81EGFP cells", "value": "> 10", "unit": "µM"}, {"measurement": "Tox_max_inhibition (%)", "setting": "HepG2-A16-CD81EGFP cells", "value": 9, "unit": "%"}]}, {"molecule": "CN(C)c1ccc2c(c1)[C@@H]1C[C@@H](CC(=O)NC3CCCCC3)O[C@@H](CO)[C@@H]1O2", "note": "[BRD-K29474997-001-01-2]", "values": [{"measurement": "normalized signal at concentration 10", "setting": "[1]; [2]", "value": 1.33}, {"measurement": "normalized signal at concentration 0.000508053", "setting": "[1]; first series", "value": 1.31}, {"measurement": "normalized signal at concentration 0.00152416", "setting": "[1]; first series", "value": 1.11}, {"measurement": "normalized signal at concentration 0.00457247", "setting": "[1]; first series", "value": 1.19}, {"measurement": "normalized signal at concentration 0.0137174", "setting": "[1]; first series", "value": 0.90}, {"measurement": "normalized signal at concentration 0.0411523", "setting": "[1]; first series", "value": 0.87}, {"measurement": "normalized signal at concentration 0.123457", "setting": "[1]; first series", "value": 0.89}, {"measurement": "normalized signal at concentration 0.37037", "setting": "[1]; first series", "value": 0.92}, {"measurement": "normalized signal at concentration 1.11111", "setting": "[1]; first series", "value": 1.25}, {"measurement": "normalized signal at concentration 3.33333", "setting": "[1]; first series", "value": 0.99}, {"measurement": "IC50", "setting": "[1]; Broad compounds, dose response", "value": "> 10", "unit": "µM"}, {"measurement": "normalized signal at concentration 10", "setting": "[1]; [3]", "value": 1.28}, {"measurement": "normalized signal at concentration 0.000508053", "setting": "[1]; second series", "value": 1.12}, {"measurement": "normalized signal at concentration 0.00152416", "setting": "[1]; second series", "value": 1.06}, {"measurement": "normalized signal at concentration 0.00457247", "setting": "[1]; second series", "value": 1.06}, {"measurement": "normalized signal at concentration 0.0137174", "setting": "[1]; second series", "value": 1.04}, {"measurement": "normalized signal at concentration 0.0411523", "setting": "[1]; second series", "value": 1.09}, {"measurement": "normalized signal at concentration 0.123457", "setting": "[1]; second series", "value": 0.92}, {"measurement": "normalized signal at concentration 0.37037", "setting": "[1]; second series", "value": 0.91}, {"measurement": "normalized signal at concentration 1.11111", "setting": "[1]; second series", "value": 1.04}, {"measurement": "normalized signal at concentration 3.33333", "setting": "[1]; second series", "value": 1.16}, {"measurement": "PbLuc_max_inhibition (%)", "setting": "[1]", "value": 13, "unit": "%"}, {"measurement": "IC50", "setting": "HepG2-A16-CD81EGFP cells", "value": "> 10", "unit": "µM"}, {"measurement": "Tox_max_inhibition (%)", "setting": "HepG2-A16-CD81EGFP cells", "value": 12, "unit": "%"}]}, {"molecule": "C[C@H]1CN([C@@H](C)CO)C(=O)CCCn2cc(nn2)CO[C@H]1CN(C)C(=O)Nc1cccc2ccccc12", "note": "[BRD-K54628954-001-01-2]", "values": [{"measurement": "normalized signal at concentration 0.000508053", "setting": "[1]; first series of columns", "value": 0.8794}, {"measurement": "normalized signal at concentration 0.00152416", "setting": "[1]; first series of columns", "value": 0.9359}, {"measurement": "normalized signal at concentration 0.00457247", "setting": "[1]; first series of columns", "value": 0.9054}, {"measurement": "normalized signal at concentration 0.0137174", "setting": "[1]; first series of columns", "value": 0.8762}, {"measurement": "normalized signal at concentration 0.0411523", "setting": "[1]; first series of columns", "value": 0.8388}, {"measurement": "normalized signal at concentration 0.123457", "setting": "[1]; first series of columns", "value": 0.9562}, {"measurement": "normalized signal at concentration 0.37037", "setting": "[1]; first series of columns", "value": 0.9801}, {"measurement": "normalized signal at concentration 1.11111", "setting": "[1]; first series of columns", "value": 0.9783}, {"measurement": "normalized signal at concentration 3.33333", "setting": "[1]; first series of columns", "value": 0.874}, {"measurement": "normalized signal at concentration 10", "setting": "[1]; first series of columns", "value": 0.9112}, {"measurement": "IC50", "setting": "[1]; Pb-Luc exoerythrocytic stage, 10-point dose response, top concentration 10", "value": "> 10", "unit": "µM"}, {"measurement": "normalized signal at concentration 0.000508053", "setting": "[1]; [4]", "value": 0.8292}, {"measurement": "normalized signal at concentration 0.00152416", "setting": "[1]; [4]", "value": 0.8809}, {"measurement": "normalized signal at concentration 0.00457247", "setting": "[1]; [4]", "value": 0.7545}, {"measurement": "normalized signal at concentration 0.0137174", "setting": "[1]; [4]", "value": 0.9599}, {"measurement": "normalized signal at concentration 0.0411523", "setting": "[1]; [4]", "value": 0.9428}, {"measurement": "normalized signal at concentration 0.123457", "setting": "[1]; [4]", "value": 0.9557}, {"measurement": "normalized signal at concentration 0.37037", "setting": "[1]; [4]", "value": 0.8087}, {"measurement": "normalized signal at concentration 1.11111", "setting": "[1]; [4]", "value": 0.9126}, {"measurement": "normalized signal at concentration 3.33333", "setting": "[1]; [4]", "value": 0.9018}, {"measurement": "normalized signal at concentration 10", "setting": "[1]; [4]", "value": 1.015}, {"measurement": "PbLuc_max_inhibition (%)", "setting": "[1]", "value": 25, "unit": "%"}, {"measurement": "IC50", "setting": "HepG2-A16-CD81EGFP cells", "value": "> 10", "unit": "µM"}, {"measurement": "Tox_max_inhibition (%)", "setting": "HepG2-A16-CD81EGFP cells", "value": 1.76, "unit": "%"}]}]}
